Source: PubChem BioAssay (NCI)
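Test compounds were applied to cells in 96-well plates for 48 hours at 5 doses. The concentration for full growth arrest is given as TGI.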

Tests used:
Assay in all cases: inhibition of tumour cell growth, NCI panel, 48 h
[1] = tested on: SR leukemia
[2] = tested on: T-47D breast
[3] = tested on: HCC-2998 colon
[4] = tested on: HCT-116 colon
[5] = tested on: SF-539 CNS
[6] = tested on: IGROV1 ovarian
[7] = tested on: HL-60(TB) leukemia
[8] = tested on: COLO 205 colon
[9] = tested on: UACC-62 melanoma
[10] = tested on: PC-3 prostate

| SMILES | TGI [1] [µM] | TGI [2] [µM] | TGI [3] [µM] | TGI [4] [µM] | TGI [5] [µM] | TGI [6] [µM] | TGI [7] [µM] | TGI [8] [µM] | TGI [9] [µM] | TGI [10] [µM] |
| --- | --- | --- | --- | --- | --- | --- | --- | --- | --- | --- |
| CCN(CC)C1Oc2cc3c(cc2C(c2cccc(OC)c2OC)C1C)OCO3 (stereo not given) | 3.3 | 28.5 | 25.8 | 12.8 | 28.2 | 29.3 | 4.63 | 17 | 30.1 | 24.4 |
| COC(=O)C(Cc1c[nH]c2ccccc12)N=C1Nc2ccncc2S(=O)(=O)N1c1cccc(OC(C)C)c1 (stereo not given) | 79.7 | > 100 | > 100 | > 100 | > 100 | > 100 | 59.3 | > 100 | > 100 | > 100 |
| CC(C)(C)NC(=O)CCC1C(C(=O)NC(C)(C)C)C2(Cl)C(Cl)=C(Cl)C1(Cl)C2(Cl)Cl (stereo not given) | > 100 | > 100 | > 100 | > 100 | > 100 | > 100 | > 100 | > 100 | > 100 | > 100 |
| CN(C)CCc1c2c(nc3ccccc13)C(=O)c1cccnc1C2=O | 0.144 | 10.6 | 2.71 | 0.344 | 0.671 | 2.14 | 0.365 | 4.91 | 0.738 | 3.02 |
| NNc1nnc(-c2nnc(NN)o2)o1 | > 10 | > 10 | > 10 | > 10 | > 10 | > 10 | > 10 | > 10 | > 10 | > 10 |
| Clc1ccc(C2ON=C(c3ccccc3)N2C23CC4CC(CC(C4)C2)C3)cc1 (stereo not given) | > 10 | > 10 | > 10 | > 10 | > 10 | > 10 | > 10 | > 10 | > 10 | > 10 |
| COc1ccc2c3c1O[C@H](c1ccc(O)cc1)[C@H]3[N+](C)(C)CC2 | > 100 | > 100 | > 100 | > 100 | > 100 | > 100 | 96.1 | > 100 | > 100 | > 100 |
| O=c1[nH]nc(-c2ccccc2)n1O | > 100 | > 100 | > 100 | > 100 | > 100 | > 100 | > 100 | > 100 | > 100 | > 100 |
| N#Cc1nc(C#N)n(S(=O)(=O)c2ccccc2)c1NS(=O)(=O)c1ccccc1 | > 100 | > 100 | > 100 | > 100 | > 100 | > 100 | > 100 | > 100 | > 100 | > 100 |
| O=c1[nH]c2nc3ccccc3c(=O)n2/c1=C/c1ccco1 | > 100 | > 100 | > 100 | > 100 | > 100 | > 100 | > 100 | > 100 | > 100 | > 100 |
| O=[N+]([O-])c1ccc(C(O)(C#CCN2CCCC2)c2ccccc2)cc1 (stereo not given) | 44.2 | 98.9 | 35.8 | > 100 | > 100 | > 100 | 36.5 | 37.8 | 87.4 | > 100 |
| CN(CCCNC(=O)c1cc(-c2ccccc2)nc2ccccc12)CCCNC(=O)c1cc(-c2ccccc2)nc2ccccc12 | 12.3 | 9.92 | 3.36 | 3.33 | 4.67 | 13.7 | 4.7 | 3.14 | 4.31 | 13 |
| COc1cc(Oc2nc3ccc(C(F)(F)F)cc3nc2-c2ccccc2)cc(OC)c1OC | > 100 | > 100 | > 100 | 31.4 | 60.8 | > 100 | > 100 | > 100 | 31.7 | > 100 |
| CO/N=C1/c2sccc2[C@H](NC(=O)C(Cc2ccccc2)NC(=O)OC(C)(C)C)[C@@H]1O (stereo not given in full) | > 100 | > 100 | > 100 | > 100 | > 100 | > 100 | > 100 | > 100 | > 100 | > 100 |
| CCC1C(c2ccccc2O)c2cc3c(cc2OC1N1CCOCC1)OCO3 (stereo not given) | 30.8 | 28.8 | 31 | 26.5 | 30.7 | 32.3 | 38.8 | 30.9 | 27.1 | 26 |
| CSc1c(C#N)c(N)n(-c2ccc(Cl)cc2)c(=O)c1C#N | > 100 | > 100 | > 100 | > 100 | > 100 | > 100 | > 100 | > 100 | > 100 | > 100 |
| c1ccc(CC2COC(c3cccs3)=N2)cc1 (stereo not given) | > 100 | > 100 | > 100 | > 100 | > 100 | > 100 | > 100 | > 100 | > 100 | > 100 |
| CCCCNc1nc(NC2OCC(OC(C)=O)C(OC(C)=O)C2OC(C)=O)c(N=O)c(=O)n1C (stereo not given) | > 10 | > 10 | > 10 | > 10 | > 10 | > 10 | > 10 | > 10 | > 10 | > 10 |
| CCOC(=O)Cn1nnc2ccc(Nc3nc4ccccc4nc3-c3ccccc3)cc21 | > 100 | > 100 | 66.4 | > 100 | > 100 | > 100 | > 100 | > 100 | > 100 | > 100 |
| O=C(O)c1ccccc1N=Nc1c(O)c(S(=O)(=O)O)cc2cc(S(=O)(=O)O)ccc12 | > 100 | > 100 | > 100 | > 100 | > 100 | > 100 | > 100 | > 100 | > 100 | > 100 |
| COc1cc(CNc2nc3ccccc3nc2C(=O)O)cc(OC)c1OC | > 100 | > 100 | > 100 | > 100 | > 100 | > 100 | > 100 | > 100 | > 100 | > 100 |
| O=C1c2c(Br)sc(Br)c2[C@@H](NC(=O)C(F)(F)F)C1Br (stereo not given in full) | 5.3 | 14.7 | 7.8 | 2.76 | 6.82 | 10.5 | 1.59 | 4.02 | 14.6 | 15.1 |
| Clc1ccc2oc(CCc3ccccc3)nc2c1 | > 100 | > 100 | 77.1 | > 100 | > 100 | > 100 | > 100 | > 100 | > 100 | > 100 |
| O=C1Cc2c([nH]c3ccc(C(=O)O)cc23)-c2ccccc2N1 | > 100 | > 100 | > 100 | > 100 | > 100 | > 100 | > 100 | > 100 | > 100 | > 100 |
